Marks after values point to notes of the source that are not given here.
Assays:
[1] = tested on: ovariectomized female rats; experiment: SERM comparison, energy balance and lipid-lipoprotein metabolism (Example 10); assay type: in vivo, Rattus norvegicus; conditions: OVX rats, 20 days
Description: For this purpose, tested compounds were administered by oral gavage for 20 days (0.5 mg/rat for each compound; 0.5 ml/rat) in 0.4% methylcellulose to ovariectomized female rats.
d) Diet: • During acclimation period, rats received a certified rodent diet (Lab Diet #5002, pellet) and tap water ad libitum while during study period, they received a high carbonhydrate diet (diet #3) and tap water ad libitum. The diet was composed of (g/100 g): Corn starch, 31.2; Dextrose, 31.2; Casein, 20.0; corn oil, 6.4; dl-Methionine, 0.3; Vitamine mix, 1.0; AIN-76 mineral mix, 4.9; fiber, 5.0. Rats were fasted (with access to water only) around 07 h00 the morning of their necropsy Randomization:
Test group: Seventy-seven rats were assigned to 8 groups of 9-10 rats for conduct of the study outlined below.
On day 0 of the study, rats from group 2 to 8 were ovariectomized (by bilateral flank incision) under Isoflurane anesthesia. Rats from group 1 were sham-operated.
Rats were weighed on day 0 (surgery) and then, every 2 days during study period as well as on the day of necropsy.
Food consumption was evaluated every 2 days.
In order to determine the effect of treatments on fat percentage, body composition was measured on Day 17 of the study using dual energy x-ray absorptiometry (DEXA; QDR 4500A, Hologic, Waltham, Mass.).
On day 21 of the study, approximately 24 hours after the last dosing and 6 hours of fasting, animals under Ketamine-Xylazine anesthesia were killed by exsanguination at the abdominal aorta.
Blood lipids (Total cholesterol and Triglycerides) and glucose were measured on frozen serum samples using the Boehringer Mannheim Diagnostic Hitachi 911 Analyzer (Boehringer Mannheim Diagnostic Laboratory Systems). Circulating hormones and substrates (Insulin and leptin) were measured on serum sample using the following kits: • Insulin: Linco RIA kit • Leptin: Linco RIA kit Organs and Tissues Collected
The following tissues were collected and weighed: • Muscle (right soleus and right VLM), fat (right retroperitoneal and right inguinal), and brown adipose tissue.
A piece of ˜0.1 g of all tissues (except uterus and vagina) were frozen in liquid nitrogen and kept at −80 C for later determination of lipoprotein-lipase (LPL) activity.

[2] = tested on: ovariectomized female rats; experiment: 34-week treatment with ethynyl estradiol, EM-652.HCl, Raloxifene and DHEA, body fat (Example 7); assay type: in vivo, rat; conditions: OVX rats, 34 weeks
Description: The objective of this study was to assess the effect of a combined treatment with EM-652.HCl, and DHEA on body fat and body weight parameters in ovariectomized rats. For this purpose, ovariectomized rats received daily administration of EM-652.HCl (1 mg/kg), and DHEA (80 mg/kg) alone or in combination, for 34 weeks. EM-652.HCl was administered orally while DHEA was applied topically on dorsal skin. One group of animals was orally treated with 17-ethynylestradiol (0.1 mg/kg) and Raloxifene (EM-1105; 1 mg/kg) for comparison.
Ten to twelve week-old female Sprague-Dawley rats (Crl:CD(SD)Br) weighing approximately 235-250 g at start of treatment were used. Eighty rats were randomly distributed between 7 groups of 11 to 12 animals per group as follows: 1) Intact control; 2) OVX control; 3) OVX+EE2 (0.1 mg/kg); 4) OVX+raloxifene (1 mg/kg); 5) OVX+EM-652.HCl (1 mg/kg); 6) OVX+DHEA (80 mg/kg); 7) OVX+EM-652.HCl+DHEA. On day 1 of the study, the animals of the appropriate groups were bilaterally ovariectomized (OVX) under isoflurane anesthesia. EM-652.HCl, raloxifene and EE2 (Steraloids) were administered once daily by oral gavage as suspension in 0.4% methylcellulose (0.5 ml/rat) for 34 weeks while DHEA was applied topically once daily on dorsal skin as a solution in 50% ethanol-50% propylene glycol (0.5 ml/rat) for the same time period. Approximately 24 hours after the last dosing, overnight fasted animals were killed by exsanguination at the abdominal aorta under isoflurane anesthesia. Left and right retroperitoneal adipose tissues were collected and weighed.
After 34 weeks of treatment, individual rats under anesthesia with isoflurane had their whole body skeleton scanned using dual energy x-ray absorptiometry (DEXA; QDR 4500A, Hologic, Waltham, Mass.) and a Regional High Resolution Scan software. The body composition (including fat percentage) was determined.
Data were expressed as the means±SEM.

[3] = tested on: ovariectomized rat; experiment: 35-week treatment, total body fat and body weight of ovariectomized rat (Example 1); assay type: in vivo; conditions: OVX rats; for Body Weight at Necropsy: 37 weeks
Description: The animals were housed three per cage and were allowed free access to tap water and a pelleted certified rodent feed (Lab Diet 5002, Ralston Purina, St-Louis, Mo.). The experiment was conducted in a Canadian Council on Animal Care approved facility in accordance with the CCAC Guide for Care and Use of Experimental Animals. […] The appropriate compound or vehicle alone was given once daily by oral gavage in 0.5 ml/rat for 37 weeks. Approximately 24 hours after the last dosing, overnight fasted animals were killed by exsanguination at the abdominal aorta under isoflurane anesthesia. After 35 weeks of treatment, individual rats under anesthesia with isoflurane had their whole body skeleton as well as their right femur scanned using dual energy x-ray absorptiometry (DEXA; QDR 4500A, Hologic, Waltham, Mass.) and a Regional High Resolution Scan software. The scan field size used for the whole body was 30.492×17.912 cm, the resolution was 0.1512×0.0640 cm and the scan speed was 2.499 mm/sec. The fat body composition of the whole body was determined. Data are expressed as the means±SEM. Statistical significance was determined according to the multiple-range test of Duncan-Kramer (1956).

[4] = tested on: ovariectomized rats; experiment: 20-day treatment with EM-652.HCl, body fat, body weight and energy balance (Example 3); assay type: in vivo, rat; conditions: OVX rats, 20 days
Description: Eight to ten week-old female Sprague-Dawley rats (Crl:CD(SD)Br) (Charles River Laboratory, St-Constant, Canada) weighing approximately 200-225 g at the start of treatment were used. The animals were acclimatized to the environmental conditions (temperature: 22±3° C.; 10-h light-14-h dark cycles, lights on at 06:00 h) for 1 week before starting the experiment. The animals were housed individually in stainless steel cages of conventional design and were allowed free access to tap water and a high carbohydrate mixed diet composed of (g/100 g): Corn starch, 31.2; Dextrose, 31.2; Casein, 20.0; corn oil, 6.4; dl-Methionine, 0.3; Vitamine mix, 1.0; AIN-76 mineral mix, 4.9 and fiber, 5.0. The experiment was conducted in a Canadian Council on Animal Care approved facility in accordance with the CCAC Guide for Care and Use of Experimental Animals.
On day 1 of the study, the animals of the appropriate groups were bilaterally ovariectomized (OVX) under isoflurane anesthesia. […] The treatment with EM-652.HCl or vehicle alone (0.4% methylcellulose in water) was initiated on day 2 of the study. The compound or vehicle was given once daily by oral gavage in 0.5 ml/rat for 20 days. Body weights and food consumption were recorded every 2 days.
Approximately 24 hours after the last dosing, overnight fasted animals were anesthesized with ketamine-xylazine and blood drawn by cardiac puncture. The blood was collected as well as white and brown adipose tissues.
Body weight, food intake, and body gains in energy, fat, and protein were determined according to Deshaies et al, Am. J. Physiol., 1997; 273, E355-E362 (1997).
Lipoprotein lipase activities were determined according to Deshaies et al, Am. J. Physiol., 1997; 273, E355-E362 (1997).

[5] = tested on: ovariectomized female rats; experiment: 20-day treatment with EM-652.HCl, estradiol and DHEA, body fat (Example 6); assay type: in vivo, Rattus norvegicus; conditions: OVX rats
From the text: d) Diet: Certified Rodent feed (Lab Diet #5002, pellets) and tap water were provided ad libitum during the acclimation period. During the study period, the rats received an enriched carbonhydrate diet ad libitum. The enriched diet (diet #3) was composed of (g/100 g): Corn starch, 31.2; Dextrose, 31.2; Casein, 20.0; Corn oil, 6.4; dl-Methionine, 0.3; Vitamin mix, 1.0; AIN-76 mineral mix, 4.9; Fiber, 5.0.
80 rats were assigned to 8 groups of 10 rats for the conduct of the study outlined below:
On day 0 of the study, rats from groups 2 to 8 were ovariectomized, by bilateral flank incision, under Isoflurane-induced anesthesia. Rats from group 1 were sham-operated.
The administration of the test articles or vehicle began on Day 1 (the day following the ovariectomy). The tested compounds were given as suspensions in 0.4% methylcellulose by oral gavage (0.5 ml/gavage) for 20 days.
On day 21 of the study (prior to the necropsy), body composition was determined on whole body skeleton of animals under Isoflurane-induced anesthesia using dual energy x-ray absorptiometry (DEXA; QDR 4500A, Hologic) in order to determine the effect of treatments on fat percentage.
Right and left retroperitoneal adipose tissue were collected and weighed.

[6] = high carbohydrate diet, 0.5 mg/rat oral gavage
[7] = EE2 0.1, Raloxifene 1, EM-652.HCl 1 mg/kg oral, DHEA 80 mg/kg topical
[8] = EM-652.HCl 0.5 mg/rat oral once daily, E2 implant

Row | SMILES | Brown adipose tissue Lipoprotein lipase activity [1, 6] [μU/g protein] | Brown adipose tissue weight [1, 6] [g] | Cumulative food intake [1, 6] [g] | Serum glucose [1, 6] [mmol/L] | Serum insulin [1, 6] [nmol/L] | Serum leptin [1, 6] [ng/mL] | Serum total cholesterol [1, 6] [mmol/L] | Serum triglycerides [1, 6] [mmol/L] | Soleus muscle Lipoprotein lipase activity [1, 6] [μU/g protein] | Soleus muscle weight [1, 6] [g] | Total weight [1, 6] [g] | VastusLateralis muscle weight [1, 6] [g] | White adipose tissue inguinal Lipoprotein lipase activity [1, 6] [μU/g protein] | White adipose tissue inguinal weight [1, 6] [g] | White adipose tissue retroperitoneal Lipoprotein lipase activity [1, 6] [μU/g protein] | Body Weight at Necropsy ([3]; 0.01 mg/kg orally once daily) [g] | Body Weight at Necropsy ([3]; 0.03 mg/kg orally once daily) [g] | Body Weight at Necropsy ([3]; 0.1 mg/kg orally once daily) [g] | Body Weight at Necropsy ([3]; 0.3 mg/kg orally once daily) [g] | Body Weight at Necropsy ([3]; 1 mg/kg orally once daily) [g] | also measured
1 | Cl.O=C(c1ccc(OCCN2CCCCC2)cc1)c1c(-c2ccc(O)cc2)sc2cc(O)ccc12 [Raloxifene] | 960 ± 116 | 0.307 ± 0.26 | 307 ± 8 | 13.8 ± 1.2 | 0.077 ± 0.10 | 1.39 ± 0.30 | 1.19 ± 0.08 | 1.20 ± 0.35 | 10.2 ± 2.0 | 0.099 ± 0.003 | 230 ± 3 | 0.795 ± 0.055 | 579 ± 46 | 0.245 ± 0.047 | 1510 ± 52 | 439 ± 13 | 451 ± 14 | 389 ± 14 | 367 ± 9 | 342 ± 12 | Serum insulin (in words) ([1]; 0.5 mg/rat): decreased; White adipose tissue retroperitoneal weight [1, 6]: 1.32 ± 0.24 g; increment of body fat and retroperitoneal adipose tissue by ovariectomy [2]: prevented; Fat % ([2]; DEXA, EE2 0.1, Raloxifene 1, EM-652.HCl 1 mg/kg oral, DHEA 80 mg/kg topical): 22.8 ± 1.6%; Left retroperitoneal adipose tissue [2, 7]: 1.41 ± 0.13 g; Right retroperitoneal adipose tissue [2, 7]: 1.29 ± 0.12 g; effect on body fat (DEXA) ([3]; 0.01-1 mg/kg orally once daily, 35 weeks, FIG. 1): less active than EM-800
2 | C[C@]12CC[C@@H]3c4ccc(O)cc4CC[C@H]3[C@@H]1CC[C@@H]2O [E2, estradiol] | 1198 ± 62 | 0.211 ± 0.021 | 255 ± 9 | 11.8 ± 1.4 | 0.070 ± 0.007 | 0.309 ± 0.097 | 2.03 ± 0.15 | 0.43 ± 0.04 | 10.9 ± 2.0 | 0.086 ± 0.003 | 198 ± 4 | 0.718 ± 0.026 | 416 ± 74 | 0.158 ± 0.019 | 1442 ± 243 | – | – | – | – | – | total energy intake, higher than that of intact animals [4]: 17%; Digestible energy intake [4, 8]: 5511^a kJ; Enegery gain [4, 8]: 903 kJ; Apparent energy (expenditure) ([4]; calculated from energy intake and energy gain): 4609^a kJ; decrease of body fat ([5]; 20 days): 46%; decrease of retroperitoneal adipose tissue ([5]; 20 days): 78%; Retroperitoneal adipose tissue ([5]; enriched carbohydrate diet, 20 days oral, EM-652.HCl 0.5, E2 0.5, DHEA 100 mg/rat): 0.81 ± 0.17 g; Fat % ([5]; enriched carbohydrate diet, 20 days oral, EM-652.HCl 0.5, E2 0.5, DHEA 100 mg/rat, DEXA day 21): 10.3 ± 0.6%
3 | CC1=C(c2ccc(OC(=O)C(C)(C)C)cc2)[C@H](c2ccc(OCCN3CCCCC3)cc2)Oc2cc(OC(=O)C(C)(C)C)ccc21 [EM-800] | – | – | – | – | – | – | – | – | – | – | – | – | – | – | – | 385 ± 17 | 364 ± 10 | 369 ± 17 | 359 ± 7 | 368 ± 6 | decrease of the OVX-induced stimulation of body fat (DEXA) ([3]; 0.01 mg/kg orally once daily, 35 weeks, FIG. 1): 78%

Source: patent publication US8609695B2, “Methods of treating and/or suppressing insulin resistance” (Endorecherche, Inc., priority 1999, dated 2013)
